The target in assay [1] is T1, PE-labeled human PD-L1-Ig binding to Jurkat cell line over-expressing human PD-1 (Jurkat-PD-1) (Homo sapiens, UniProt Q15116).
T1 construct: expressed in transfected cells; host or cells: Jurkat
The assay can be described thus: Jurkat-PD-1 Cell Binding High-Content Screening Assay (CBA): Method 1. The following applies: Jurkat-PD-1 cells, PE-labeled PD-L1-Ig.

Assay [2] has as its target T1, PE-labeled human PD-L1-Ig binding to Jurkat cell line over-expressing human PD-1 (Jurkat-PD-1). Nature of the assay: Jurkat-PD-1 Cell Binding High-Content Screening Assay (CBA): Method 2 (presence and absence of tween-20). The following applies: Jurkat-PD-1 cells, PE-labeled PD-L1-Ig 20 nM, presence or absence of tween-20 not given. How it is done: Jurkat-PD-1 Cell Binding High-Content Screening Assay (CBA): Method 2
Phycoerythrin (PE) was covalently linked to the Ig epitope tag of human PD-L1-Ig and fluorescently labeled PD-L1-Ig was used for binding studies with a Jurkat cell line over-expressing human PD-1 (Jurkat-PD-1). […] 100 nl of compound was added to cells followed by incubation at 37° C. for 2 hours. To interrogate potential issues with compound aggregation, compounds were tested in the presence and absence of tween-20 detergent. […] Then, 5 μl of PE-labeled PD-L1-Ig (20 nM final), diluted in DMEM supplemented with 10% fetal calf serum. […] Data was collected and processed using a Cell Insight NXT High Content Imager and associated software.

[3] abbreviates: head μM, read-out: CBA Method 2 μM.

Numbered stars: 1 amine (or outer) side, 2 acyl side, 3 side chain; on linkers, the order of the positions; unused ones are H or OH. Bridge positions count the residues as written; N and C are the ends. Square brackets hold non-standard residues; d marks the D form. Peptide text beside a SMILES is read from it. * marks the point of attachment. ξ: configuration not given here. X10 = O=C(CCc1c[nH]cn1)NCc1cccc(C[C@H](N[*:1])C(=O)[*:2])c1; Bip(4'-COOH) = N[C@@H](Cc1ccc(-c2ccc(C(=O)O)cc2)cc1)C(=O)O; Bip(4'-NHAc) = CC(=O)Nc1ccc(-c2ccc(C[C@H](N)C(=O)O)cc2)cc1; Phe(3-CF3) = N[C@@H](Cc1cccc(C(F)(F)F)c1)C(=O)O; Ala(morpholin-4-yl) = N[C@@H](CN1CCOCC1)C(=O)O; Phe(4-CONH2) = NC(=O)c1ccc(C[C@H](N)C(=O)O)cc1; Phe(4-COOH) = N[C@@H](Cc1ccc(C(=O)O)cc1)C(=O)O; X5 = CS(=O)(=O)NC(=O)C[C@H](N[*:1])C(=O)[*:2]; Bip = N[C@@H](Cc1ccc(-c2ccccc2)cc1)C(=O)O; Phe(3-OMe) = COc1cccc(C[C@H](N)C(=O)O)c1; Phe(3-F) = N[C@@H](Cc1cccc(F)c1)C(=O)O; Phe(3-Me) = Cc1cccc(C[C@H](N)C(=O)O)c1; Val(3-OH) = CC(C)(O)[C@H](N)C(=O)O; X11 = CC(N)[C@H](N[*:1])C(=O)[*:2]; Malonyl = O=C(CC(=O)[*:2])[*:1]; Cha = N[C@@H](CC1CCCCC1)C(=O)O; Thr(3ξ) = CC(O)[C@H](N)C(=O)O; Carboxymethyl = O=C(O)C*; NMeA = CN[C@@H](C)C(=O)O; Orn = NCCC[C@H](N)C(=O)O; Dab = NCC[C@H](N)C(=O)O

T1 sequence (Q15116 25-288): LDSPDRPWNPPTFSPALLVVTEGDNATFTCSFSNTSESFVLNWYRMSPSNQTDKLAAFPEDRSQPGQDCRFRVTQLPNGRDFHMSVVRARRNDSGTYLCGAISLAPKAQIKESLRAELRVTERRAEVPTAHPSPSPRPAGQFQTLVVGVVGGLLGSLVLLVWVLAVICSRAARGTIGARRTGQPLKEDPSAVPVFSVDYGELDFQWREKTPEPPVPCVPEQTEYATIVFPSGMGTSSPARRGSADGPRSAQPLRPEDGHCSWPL

Take `CC(C)C[C@H]1NC(=O)[C@H](C)N(C)C(=O)[C@H](CCC(N)=O)NC(=O)[C@H](Cc2ccc(-c3ccccc3)cc2)NC(=O)[C@H](Cc2ccc(C(=O)O)cc2)NC(=O)[C@H](Cc2cccc(C(F)(F)F)c2)NC(=O)[C@H](CC(=O)O)NC(=O)[C@H](Cc2ccc(OCC(=O)O)cc2)NC(=O)[C@H](CN2CCOCC2)NC(=O)CSC[C@@H](C(=O)N[C@@H](CCN)C(N)=O)NC(=O)[C@H](CCCN)NC(=O)[C@H](C(C)C)NC(=O)[C@H](CC2CCCCC2)NC(=O)[C@H](CCN)NC1=O` [Example 5013] ({CH2CO}-[Ala(morpholin-4-yl)]Y(Carboxymethyl)D[Phe(3-CF3)][Phe(4-COOH)][Bip]Q[NMeA][dL][Dab][Cha]V[Orn]C[Dab]-NH2; thioether N-14): the IC50 in assay [1] (nM, read-out: CBA Method 1) was found to be 11 nM; in assay [2] (nM, read-out: CBA Method 2), 4 nM.
On to `CC(C)C[C@H]1NC(=O)[C@H](C)N(C)C(=O)[C@H](CCC(N)=O)NC(=O)[C@H](Cc2ccc(-c3ccccc3)cc2)NC(=O)[C@H](Cc2ccc(C(=O)O)cc2)NC(=O)[C@H](Cc2cccc(C(F)(F)F)c2)NC(=O)[C@H](CCNC(=O)CC(=O)O)NC(=O)[C@H](Cc2ccc(C(=O)O)cc2)NC(=O)[C@H](CN2CCOCC2)NC(=O)CSC[C@@H](C(=O)N[C@@H](CCN)C(N)=O)NC(=O)[C@H](CCCN)NC(=O)[C@H](C(C)C)NC(=O)[C@H](CC2CCCCC2)NC(=O)[C@H](CCN)NC1=O` [Example 5075] ({CH2CO}-[Ala(morpholin-4-yl)][Phe(4-COOH)][Dab](Malonyl)[Phe(3-CF3)][Phe(4-COOH)][Bip]Q[NMeA][dL][Dab][Cha]V[Orn]C[Dab]-NH2; thioether N-14), for which the IC50 in assay [1] (μM, read-out: CBA Method 1 μM) was 128 nM; in assay [2] (setting [3]), 372 nM.
The matching figures for `Cc1cccc(C[C@@H]2NC(=O)[C@H](CC(=O)O)NC(=O)[C@H](Cc3ccc(OCC(=O)O)cc3)NC(=O)[C@H](C(C)N)NC(=O)CSC[C@@H](C(=O)N[C@@H](CCN)C(N)=O)NC(=O)[C@H](CO)NC(=O)[C@H](C(C)(C)O)NC(=O)[C@H](CC3CCCCC3)NC(=O)[C@H](CCN)NC(=O)[C@@H](CC(C)C)NC(=O)[C@H](C)N(C)C(=O)[C@H](Cc3ccc(C(N)=O)cc3)NC(=O)[C@H](Cc3ccc(-c4ccccc4)cc3)NC(=O)[C@H](Cc3ccc(OCC(=O)O)cc3)NC2=O)c1` (stereo partly drawn) [Example 5066] ({CH2CO}-[X11]Y(Carboxymethyl)D[Phe(3-Me)]Y(Carboxymethyl)[Bip][Phe(4-CONH2)][NMeA][dL][Dab][Cha][Val(3-OH)]SC[Dab]-NH2; thioether N-14): 30.4 nM and 2.8 nM.
For `CC(C)C[C@@H]1NC(=O)[C@H](Cc2c[nH]c3ccccc23)NC(=O)[C@H](CC(N)=O)NC(=O)[C@H](Cc2ccc(O)cc2)NC(=O)[C@H](Cc2ccccc2)NC(=O)CSC[C@@H](C(=O)NCC(N)=O)NC(=O)[C@H](CO)NC(=O)[C@H](C(C)C)NC(=O)[C@H](CC(C)C)NC(=O)[C@H](CC(N)=O)NC(=O)[C@@H](CC(C)C)NC(=O)[C@H](C)N(C)C(=O)[C@H](C(C)C)NC(=O)[C@H](Cc2ccc(-c3ccccc3)cc2)NC1=O` [Example 5025] ({CH2CO}-FYNWL[Bip]V[NMeA][dL]NLVSCG-NH2; thioether N-14), in that order: 310 nM and 560 nM.
Take `Cc1cccc(C[C@@H]2NC(=O)[C@H](CC(=O)NS(C)(=O)=O)NC(=O)[C@H](Cc3ccc(OCC(=O)O)cc3)NC(=O)[C@H](CN3CCOCC3)NC(=O)CSC[C@@H](C(=O)N[C@@H](CCN)C(N)=O)NC(=O)[C@H](CCCN)NC(=O)[C@H](C(C)C)NC(=O)[C@H](CC3CCCCC3)NC(=O)[C@H](CCN)NC(=O)[C@@H](CC(C)C)NC(=O)[C@H](C)N(C)C(=O)[C@H](Cc3ccc(C(=O)O)cc3)NC(=O)[C@H](Cc3ccc(-c4ccccc4)cc3)NC(=O)[C@H](Cc3ccc(C(=O)O)cc3)NC2=O)c1` [Example 5046] ({CH2CO}-[Ala(morpholin-4-yl)]Y(Carboxymethyl)[X5][Phe(3-Me)][Phe(4-COOH)][Bip][Phe(4-COOH)][NMeA][dL][Dab][Cha]V[Orn]C[Dab]-NH2; thioether N-14): the IC50 in assay [1] (μM, read-out: CBA Method 1 μM) turned out to be 514 nM; in assay [2] (setting [3]), 517 nM.
`COc1cccc(C[C@@H]2NC(=O)[C@H](CCN)NC(=O)[C@@H](CC(C)C)NC(=O)[C@H](C)N(C)C(=O)[C@H](CCC(N)=O)NC(=O)[C@H](Cc3ccc(-c4ccccc4)cc3)NC(=O)[C@H](Cc3ccc(C(=O)O)cc3)NC(=O)[C@H](Cc3cccc(C)c3)NC(=O)[C@H](CC(=O)O)NC(=O)[C@H](Cc3ccc(OCC(=O)O)cc3)NC(=O)[C@H](CN3CCOCC3)NC(=O)CSC[C@@H](C(=O)N[C@@H](CCN)C(N)=O)NC(=O)[C@H](CCCN)NC(=O)[C@H](C(C)C)NC2=O)c1` [Example 5043] ({CH2CO}-[Ala(morpholin-4-yl)]Y(Carboxymethyl)D[Phe(3-Me)][Phe(4-COOH)][Bip]Q[NMeA][dL][Dab][Phe(3-OMe)]V[Orn]C[Dab]-NH2; thioether N-14): the IC50 amounted to 9.8 nM in assay [1] (μM, read-out: CBA Method 1 μM) and 9.8 nM in assay [2] (setting [3]).
On to `Cc1cccc(C[C@@H]2NC(=O)[C@H](CC(=O)O)NC(=O)[C@H](Cc3ccc(OCC(=O)O)cc3)NC(=O)[C@H](Cc3cccc(CNC(=O)CCc4c[nH]cn4)c3)NC(=O)CSC[C@@H](C(=O)N[C@@H](CCN)C(N)=O)NC(=O)[C@H](CCCN)NC(=O)[C@H](C(C)C)NC(=O)[C@H](CC3CCCCC3)NC(=O)[C@H](CCN)NC(=O)[C@@H](CC(C)C)NC(=O)[C@H](C)N(C)C(=O)[C@H](CCC(N)=O)NC(=O)[C@H](Cc3ccc(-c4ccccc4)cc3)NC(=O)[C@H](Cc3ccc(C(=O)O)cc3)NC2=O)c1` [Example 5035] ({CH2CO}-[X10]Y(Carboxymethyl)D[Phe(3-Me)][Phe(4-COOH)][Bip]Q[NMeA][dL][Dab][Cha]V[Orn]C[Dab]-NH2; thioether N-14), for which the IC50 in assay [1] (μM, read-out: CBA Method 1 μM) amounted to 4.2 nM; in assay [2] (setting [3]), 3.5 nM.
For `Cc1cccc(C[C@@H]2NC(=O)[C@H](CC(=O)O)NC(=O)[C@H](Cc3ccc(OCC(=O)O)cc3)NC(=O)[C@H](C(C)O)NC(=O)CSC[C@@H](C(=O)N[C@@H](CCN)C(N)=O)NC(=O)[C@H](CO)NC(=O)[C@H](C(C)(C)O)NC(=O)[C@H](CC3CCCCC3)NC(=O)[C@H](CCN)NC(=O)[C@@H](CC(C)C)NC(=O)[C@H](C)N(C)C(=O)[C@H](Cc3ccc(C(N)=O)cc3)NC(=O)[C@H](Cc3ccc(-c4ccccc4)cc3)NC(=O)[C@H](Cc3ccc(OCC(=O)O)cc3)NC2=O)c1` (stereo partly drawn) [Example 5067] ({CH2CO}-[Thr(3ξ)]Y(Carboxymethyl)D[Phe(3-Me)]Y(Carboxymethyl)[Bip][Phe(4-CONH2)][NMeA][dL][Dab][Cha][Val(3-OH)]SC[Dab]-NH2; thioether N-14), in that order: 7.2 nM and 6.9 nM.
The matching figures for `CC(=O)Nc1ccc(-c2ccc(C[C@@H]3NC(=O)[C@H](Cc4cccc(C)c4)NC(=O)[C@H](CC(=O)O)NC(=O)[C@H](Cc4ccc(C(=O)O)cc4)NC(=O)[C@H](CC(C)C)NC(=O)CSC[C@@H](C(=O)N[C@@H](CCN)C(N)=O)NC(=O)[C@H](CCCN)NC(=O)[C@H](C(C)C)NC(=O)[C@H](Cc4cccc(F)c4)NC(=O)[C@H](CCN)NC(=O)[C@@H](CC(C)C)NC(=O)[C@H](C)N(C)C(=O)[C@H](CCC(N)=O)NC(=O)[C@H](Cc4ccc(-c5ccccc5)cc4)NC3=O)cc2)cc1` [Example 5055] ({CH2CO}-L[Phe(4-COOH)]D[Phe(3-Me)][Bip(4'-NHAc)][Bip]Q[NMeA][dL][Dab][Phe(3-F)]V[Orn]C[Dab]-NH2; thioether N-14): 38.5 nM and 32.1 nM.
The matching figures for `Cc1cccc(C[C@@H]2NC(=O)[C@H](CC(=O)O)NC(=O)[C@H](Cc3ccc(C(=O)O)cc3)NC(=O)[C@H](CC(C)C)NC(=O)CSC[C@@H](C(=O)N[C@@H](CCN)C(N)=O)NC(=O)[C@H](CCCN)NC(=O)[C@H](C(C)C)NC(=O)[C@H](Cc3cccc(F)c3)NC(=O)[C@H](CCN)NC(=O)[C@@H](CC(C)C)NC(=O)[C@H](C)N(C)C(=O)[C@H](CCC(N)=O)NC(=O)[C@H](Cc3ccc(-c4ccccc4)cc3)NC(=O)[C@H](Cc3ccc(-c4ccc(C(=O)O)cc4)cc3)NC2=O)c1` [Example 5064] ({CH2CO}-L[Phe(4-COOH)]D[Phe(3-Me)][Bip(4'-COOH)][Bip]Q[NMeA][dL][Dab][Phe(3-F)]V[Orn]C[Dab]-NH2; thioether N-14): 54.4 nM and 34.8 nM.
In the case of `CC(C)C[C@H]1NC(=O)[C@H](C)N(C)C(=O)[C@H](CCC(N)=O)NC(=O)[C@H](Cc2ccc(-c3ccccc3)cc2)NC(=O)[C@H](Cc2ccc(-c3ccc(C(=O)O)cc3)cc2)NC(=O)[C@H](Cc2cccc(C(F)(F)F)c2)NC(=O)[C@H](CC(=O)O)NC(=O)[C@H](Cc2ccc(C(=O)O)cc2)NC(=O)[C@H](CN2CCOCC2)NC(=O)CSC[C@@H](C(=O)N[C@@H](CCN)C(N)=O)NC(=O)[C@H](CCCN)NC(=O)[C@H](C(C)C)NC(=O)[C@H](CC2CCCCC2)NC(=O)[C@H](CCN)NC1=O` [Example 5058] ({CH2CO}-[Ala(morpholin-4-yl)][Phe(4-COOH)]D[Phe(3-CF3)][Bip(4'-COOH)][Bip]Q[NMeA][dL][Dab][Cha]V[Orn]C[Dab]-NH2; thioether N-14), the IC50 was found to be 3.2 nM in assay [1] (μM, read-out: CBA Method 1 μM) and 2.4 nM in assay [2] (setting [3]).
